Reference: ChEMBL document CHEMBL3045395, “Synthesis and reactive oxygen species scavenging activity of halogenated alkaloids from boldine” (Med Chem Res, 2012)

Legend:
[1] = Antioxidant activity in Homo sapiens (human) PMNC assessed as inhibition of fMLP-induced ROS generation at 100 uM incubated for 30 min prior to fMLP-induction measured every 4 secs for 100 secs by luminol-enhanced chemiluminescence analysis; assay type: functional
[2] = Antioxidant activity assessed as inhibition of hypoxanthine/xanthine oxidase-mediated ROS generation incubated for 5 min prior to xanthine oxidase addition measured every 4 secs for 100 secs by luminol-enhanced chemiluminescence analysis; assay type: functional
[3] = molecular target: Xanthine dehydrogenase/oxidase (Homo sapiens, UniProt P47989); assay: Inhibition of xanthine oxidase (unknown origin) using pterine as substrate assessed as rate of isoxantopterine formation by fluorimetric analysis (reference value: 3.25 +/- 0.25 umol/min)
[4] = (§1) Antioxidant activity in Homo sapiens (human) PMNC assessed as inhibition of fMLP-induced ROS generation incubated for 30 min prior to fMLP-induction measured every 4 secs for 100 secs by luminol-enhanced chemiluminescence analysis; assay type: functional
Homo sapiens = organism: Homo sapiens; assay: as §1; assay type: functional

Sequence of Xanthine dehydrogenase/oxidase (P47989 whole entry): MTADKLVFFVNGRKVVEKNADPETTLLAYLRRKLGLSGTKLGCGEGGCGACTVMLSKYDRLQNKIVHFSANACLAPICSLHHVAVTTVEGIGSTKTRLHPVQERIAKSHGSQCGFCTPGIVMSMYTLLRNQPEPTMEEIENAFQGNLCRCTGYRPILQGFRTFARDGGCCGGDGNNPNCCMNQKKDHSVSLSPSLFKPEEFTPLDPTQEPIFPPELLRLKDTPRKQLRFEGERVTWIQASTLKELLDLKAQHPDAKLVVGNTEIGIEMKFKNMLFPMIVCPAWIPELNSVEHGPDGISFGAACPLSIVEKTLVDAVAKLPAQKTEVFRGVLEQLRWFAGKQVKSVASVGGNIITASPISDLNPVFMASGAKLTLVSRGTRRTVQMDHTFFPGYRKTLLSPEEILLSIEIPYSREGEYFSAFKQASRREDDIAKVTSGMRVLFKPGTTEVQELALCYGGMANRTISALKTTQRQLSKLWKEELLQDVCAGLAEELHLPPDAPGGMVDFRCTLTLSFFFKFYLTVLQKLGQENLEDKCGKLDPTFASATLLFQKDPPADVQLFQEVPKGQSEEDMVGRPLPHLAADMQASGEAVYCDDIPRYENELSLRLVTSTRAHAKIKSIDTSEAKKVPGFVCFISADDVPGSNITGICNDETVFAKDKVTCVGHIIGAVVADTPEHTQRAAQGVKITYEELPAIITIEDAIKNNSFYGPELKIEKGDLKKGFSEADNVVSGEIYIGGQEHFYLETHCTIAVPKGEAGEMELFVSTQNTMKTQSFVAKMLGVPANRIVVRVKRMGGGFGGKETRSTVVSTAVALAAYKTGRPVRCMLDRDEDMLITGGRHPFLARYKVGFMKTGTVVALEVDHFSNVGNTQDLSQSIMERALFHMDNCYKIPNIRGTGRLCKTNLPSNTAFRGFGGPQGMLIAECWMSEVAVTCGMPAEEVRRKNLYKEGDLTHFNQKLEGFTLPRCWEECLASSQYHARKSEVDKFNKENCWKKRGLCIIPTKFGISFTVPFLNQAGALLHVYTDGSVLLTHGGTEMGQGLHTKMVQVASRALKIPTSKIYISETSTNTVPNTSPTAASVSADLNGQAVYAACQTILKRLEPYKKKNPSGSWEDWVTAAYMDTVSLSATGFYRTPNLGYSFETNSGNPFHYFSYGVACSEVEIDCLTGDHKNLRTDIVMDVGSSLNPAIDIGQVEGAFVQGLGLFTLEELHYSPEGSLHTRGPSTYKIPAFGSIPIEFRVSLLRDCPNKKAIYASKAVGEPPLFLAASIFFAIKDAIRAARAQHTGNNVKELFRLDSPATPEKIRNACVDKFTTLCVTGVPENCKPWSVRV

With COc1cc2ccc3c(CC[N+](C)(C)C)c(Br)c(OC)c(OC)c3c2cc1OC.[I-] the inhibition at 100 µM [1] was 62%, the IC50 [2] was 3.01 µM and the inhibition [2] was “Dose-dependent effect”. For the same molecule, the Activity [3] was 3.45 µmol/min.

With CNCCc1c(Br)c(O)c(OC)c2c1ccc1cc(O)c(OC)cc12 [2-BROMOSECOBOLDINE] the IC50 [2] was 0.16 µM, the inhibition [2] was “Dose-dependent effect” and the Activity [3] was 2.82 µmol/min. The IC50 [4] was 0.64 µM and the inhibition (Homo sapiens) was “Dose-dependent effect”.

In the case of O=C1O[C@H]([C@@H](O)CO)C(O)=C1O [ASCORBIC ACID], the IC50 [4] is reported as 168 µM.

With COc1cc2c(cc1O)C[C@H]1c3c(c(Br)c(O)c(OC)c3-2)CC[N+]1(C)C.[I-] [3-BROMO-N-METHYLBOLDINE IODIDE] the IC50 [2] was 2 µM, the inhibition [2] was “Dose-dependent effect” and the Activity [3] was 3.77 µmol/min. For the same molecule, the IC50 [4] was 1.27 µM and the inhibition (Homo sapiens) was “Dose-dependent effect”.

With COc1cc2c(ccc3c(CC[N+](C)(C)C)c(Br)c(O)c(OC)c32)cc1O.[I-] the IC50 [2] was 2.11 µM, the inhibition [2] was “Dose-dependent effect” and the Activity [3] was 3.6 µmol/min. For the same molecule, the IC50 [4] was 0.74 µM and the inhibition (Homo sapiens) was “Dose-dependent effect”.

In the case of COc1cc2c(cc1O)C[C@H]1c3c(c(Br)c(O)c(OC)c3-2)CCN1C [3-BROMOBOLDINE], the IC50 [2] is reported as 0.55 µM, the inhibition [2] is reported as “Dose-dependent effect” and the Activity [3] is reported as 4.09 µmol/min. The IC50 [4] was 0.81 µM and the inhibition (Homo sapiens) was “Dose-dependent effect”.

With COc1cc2c(ccc3c(CCN(C)C)c(Br)c(O)c(OC)c32)cc1O [2-BROMO-N-METHYLSECOBOLDINE] the IC50 [2] was 0.19 µM, the inhibition [2] was “Dose-dependent effect” and the Activity [3] was 3.98 µmol/min. For the same molecule, the IC50 [4] was 0.78 µM and the inhibition (Homo sapiens) was “Dose-dependent effect”.
